Here are results for 10 compounds from patent US8076352B2, “Administration of carboline derivatives useful in the treatment of cancer and other diseases” (PTC Therapeutics, Inc., priority 2004, dated 2011).

In assay [1] the test system is hypoxia-inducible endogenous VEGF expression in HeLa cells. In words: Hypoxia-inducible endogenous VEGF expression, VEGF ELISA of conditioned media (dose-response EC50). The assay is classed as cell-based. Summed up:
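Secreted VEGF was quantified by ELISA against a per-assay standard curve after HeLa cells spent 24-48 h in 1% O2, 5% CO2, N2 balance with or without compound. Across a series of, e.g., seven concentrations, percentage inhibition (max 100%, min 0%) gave EC50 and CC50 values.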
For orientation: An ELISA detects its analyte on a solid surface through an enzyme-linked reagent.

In a further assay the target is T1, recombinant PDE5 (Homo sapiens, UniProt O76074).
T1 construct: purchased CalBioChem
Briefly: PDE5 activity, High-Efficiency Fluorescence Polarization Assay (HEFP). The assay is classed as biochemical. The settings on record: 45 minutes at room temperature, vs positive control Tadalafil, FIG. 12. On the procedure: The compounds of the invention are tested to assess their affect on phosphodiesterase 5 (PDE5) activity. The affect on PDE5 activity is determined using the High-Efficiency Fluorescence Polarization Assay (HEFP) kit from Molecular Devices. The HEFP assay measures the activity of PDE-5 by using fluorescein-labeled derivatives of cGMP as a substrate. When hydrolyzed by PDE-5, fluorescein-labeled cGMP derivatives are able to bind to a binding reagent. The cGMP substrate:binding reagent complex results in a highly polarized fluorescent state.
After combining recombinant PDE5 (CalBioChem) and the cGMP substrate, the mixture is incubated at room temperature for 45 minutes in the presence or absence of compounds or a positive control (Tadalafil). The reaction is stopped upon addition of the binding reagent. Fluorescence polarization is determined on a Viewlux using a setting recommended by the manufacturer.
In general terms: Fluorescence polarisation rises when a labelled molecule tumbles more slowly, as on binding a larger partner.

In assay [2] the test system is neuroblastoma (SY5Y and NGP). In words: Neuroblastoma tumor growth in vivo. The following applies: 30 mg/kg once a day, vs vehicle, FIG. 2. Further details: species or system nude mice. On the procedure:
(§1) Compounds of the invention also show activity in the following pharmacodynamic model that assesses tumor VEGF levels. Briefly, HT1080 cells (a human fibrosarcoma cell line) may be implanted subcutaneously in nude mice. After seven days, mice may be administrated compounds orally at a desired dosage range, e.g., 200 mg/kg/day, for seven days. The tumors may then be excised from mice, weighed and homogenized in Tris-HCl buffer containing proteinase inhibitors. Moulder et al., Cancer Res. 61(24):8887-95 (2001). Tumor VEGF levels are subsequently measured using a human VEGF ELISA kit (R&D System). Protein concentrations of the homogenates are measured with a Bio-Rad Protein assay kit and tumor VEGF levels are normalized to the protein concentrations.
(§2) In similarly conducted experiments, compounds of the invention are shown to reduce lung cancer tumor growth (at a dosage of 3 mg/kg, twice a day, or 30 mg/kg, twice a day) (FIG. 1), Ewing's sarcoma and neuroblastoma tumor growth (at a dosage of 30 mg/kg, once a day) (FIG. 2), fibrosarcoma tumor growth (at a dosage of 10 mg/kg 3×/week) (FIG. 3), and human skin malignant melanoma (at a dosage of 10 mg/kg 5×/week) (FIG. 4) as compared to vehicle. Furthermore, the compounds of the invention are shown to reduce VEGF plasma and tumor levels in fibrosarcoma tumors as compared to vehicle (at a dosage of 10 mg/kg 3×/week) (FIG. 5). […]

In assay [3] the test system is Ewing's sarcoma (SK-NEP-1) and neuroblastoma (SY5Y and NGP) tumors. In words: Angiogenesis in excised tumors, immunochemistry with antibodies to Collagen IV. Type of assay: in vivo, mice. The settings on record: Collagen IV staining of excised tumors, FIG. 10. The text has this: The tumors excised from the mice can also be used in immunochemistry experiments to determine levels of angiogenesis. […] SK-NEP-1 cells were previously believed to be a useful Wilms tumor model.

Assay [4] deals with Ewing's sarcoma (SK-NEP-1). In words: Ewing's sarcoma tumor growth in vivo. Details: species or system nude mice. The settings on record: 30 mg/kg once a day, vs vehicle, FIG. 2. On the procedure:
as §1, §2

Another assay relates to human cervical carcinoma. In words: Cervical cancer tumor growth in vivo, alone or with Taxol. Further details: species or system nude mice. The settings on record: alone or in combination with Taxol (paclitaxel), FIG. 7.
The subject of assay [5] is HT1080 cells (a human fibrosarcoma cell line). Briefly: In vivo tumor growth PD model, tumor and plasma VEGF levels by human VEGF ELISA. Details: species or system nude mice. The following applies: 10 mg/kg 3×/week, vs vehicle, FIG. 5. On the procedure: as §1
(§3) In similarly conducted experiments, compounds of the invention are shown to reduce lung cancer tumor growth (at a dosage of 3 mg/kg, twice a day, or 30 mg/kg, twice a day) (FIG. 1), Ewing's sarcoma and neuroblastoma tumor growth (at a dosage of 30 mg/kg, once a day) (FIG. 2), fibrosarcoma tumor growth (at a dosage of 10 mg/kg 3×/week) (FIG. 3), and human skin malignant melanoma (at a dosage of 10 mg/kg 5×/week) (FIG. 4) as compared to vehicle. Furthermore, the compounds of the invention are shown to reduce VEGF plasma and tumor levels in fibrosarcoma tumors as compared to vehicle (at a dosage of 10 mg/kg 3×/week) (FIG. 5).

Another assay relates to VEGF. In words: Tumor and plasma VEGF expression in vivo, alone or with Avastin. Details: species or system nude mice. The settings on record: alone or in combination with Avastin, FIG. 9. On the procedure:
as §1, §3

In a further assay the test system is colon cancer tumor. In words: Colon cancer tumor growth in vivo, alone or with 5-FU. Details: species or system nude mice. The settings on record: alone or in combination with 5-FU (fluorouracil), FIG. 6.
The subject of a further assay is tumor. Briefly: Tumor growth in vivo, alone or with Avastin. The following applies: alone or in combination with Avastin (bevacizumab), FIG. 8. Further details: species or system nude mice. How it is done:
as §1, §3

The test system of assay [6] is human skin malignant melanoma. In words: Malignant melanoma tumor growth in vivo. Details: species or system nude mice. The settings on record: 10 mg/kg 5×/week, vs vehicle, FIG. 4. How it is done: as §1, §3
A further assay deals with fibrosarcoma tumor. In words: Fibrosarcoma tumor growth in vivo. Further details: species or system nude mice. The following applies: 10 mg/kg 3×/week, vs vehicle, FIG. 3. How it is done: as §1, §3
In another assay the test system is lung cancer tumor. In words: Lung cancer tumor growth in vivo. Further details: species or system nude mice. The following applies: 3 mg/kg twice a day or 30 mg/kg twice a day, vs vehicle, FIG. 1. How it is done:
as §1, §3

In a further assay the test system is VEGF mRNA. Briefly: VEGF mRNA levels by Real-Time PCR under hypoxic conditions. The following applies: FIG. 11. The assay is classed as cell-based, Human. On the procedure:
Human solid tumor cells are treated with various concentrations of a compound of the present invention or a control under hypoxic conditions. Actinomycin D blocks transcription and is used as a control. Total RNA is isolated using the RNeasy kit (Qiagen, Inc., Valencia, Calif., USA) or an acid-guanidinium thiocyanate-phenol-chloroform based method (See Chomczynski, P. and Sacchi, N., Anal. Biochem. 162: 156 (1987), hereby incorporated by reference).
Concentration of total RNA can be determined using the RiboGreen® fluorescent dye (Molecular Probes, Inc., Eugene, Oreg., USA) with the VersaFluor Fluorometer System (BioRad, Hercules, Calif., USA). Quality and integrity of total RNA can be assessed on 1% formaldehyde-agarose gels. First-strand cDNA was synthesized using 1 μg of total RNA (DNase-treated) in a 20 μl reverse transcriptase reaction mixture (Leclerc G J, Barredo J C, Clin. Cancer Res. 2001, 7:942-951, which is hereby incorporated by reference). A region of the VEGF mRNA is amplified using PCR primers. The cDNA amplified fragment (approximately 300 basepairs) is cloned into a vector such as the pCR2.1-TOPO vector (Invitrogen, Carlsbad, Calif., USA) to generate a plasmid. […] Real-Time quantitations are performed using the BIO-RAD iCycler iQ system (BioRad, Hercules, Calif., USA). The fluorescence threshold value can be calculated using the iCycle iQ system software.
For orientation: In qPCR the cycle at which signal appears reflects the starting amount.

Setting [7] is: Homo sapiens, HeLa cells under hypoxic conditions.
Setting [8] is: Homo sapiens, HeLa cells, hypoxic conditions (1% O2, 5% CO2).

What is called EC50 is the concentration that produces a half-maximal response. Higher therefore signals lower potency in that assay.

`CCOC(=O)N1CCc2c([nH]c3ccc(Br)cc23)C1c1ccc(C(C)C)cc1` (centres unmarked) [Compound 7] came in with an EC50 in [1] (setting [7]) of less than 8 nM. In addition, the PDE-5 activity result at recombinant PDE5 is given as “do not inhibit the activity of PDE-5”.

For `COc1ccc(C2c3[nH]c4ccc(Cl)cc4c3CCN2C(=O)Oc2ccc(Cl)cc2)cc1` (centres unmarked) [Compound 10], the neuroblastoma tumor growth result in assay [2] is on record as “inhibition”. Besides, the angiogenesis result in assay [3] is “inhibition of angiogenesis”. Also, the “Ewing's sarcoma tumor growth” value in assay [4] was “inhibition”. For the same compound, the “cervical cancer tumor growth” value with human cervical carcinoma is “inhibition of cervical cancer tumor growth”. For the same compound, the “VEGF expression in a fibrosarcoma tumor (tumor VEGF levels)” value in assay [5] is on record as “inhibition of VEGF expression”. In the assay with VEGF, the “plasma VEGF expression” value was “inhibition” and the “tumor VEGF expression” value is “inhibition”. In [1] (setting [7]), this compound displayed a half-maximal effective concentration (EC50) of less than 8 nM. Besides, in the assay with colon cancer tumor, the “colon cancer tumor growth” value was “inhibition of colon cancer tumor growth”. In addition, the tumor growth result in the assay on tumor is on record as “inhibition of tumor growth”. In addition, the “malignant melanoma tumor growth” value in assay [6] is listed as “inhibition of malignant melanoma tumor growth”. For the same compound, in the assay with fibrosarcoma tumor, the fibrosarcoma tumor growth result is “inhibition of fibrosarcoma tumor growth”. Further, in the assay with lung cancer tumor, the “lung cancer tumor growth” value is “inhibition of lung cancer tumor growth”. For the same compound, the “VEGF mRNA levels” value in the assay on VEGF mRNA is recorded as “does not affect VEGF mRNA levels”. The PDE-5 activity entry at recombinant PDE5 is reported as “do not inhibit the activity of PDE-5”.

`CC(C)c1ccc(C2c3[nH]c4ccc(Br)cc4c3CCN2c2ncccn2)cc1` (centres unmarked) [Compound 25]: in assay [1] (setting [7]), the EC50 was less than 8 nM. Moreover, the PDE-5 activity result on recombinant PDE5 is reported as “do not inhibit the activity of PDE-5”.

The compound `COCCN(CCCOc1ccc(C2c3[nH]c4ccc(Cl)cc4c3CCN2C(=O)Oc2ccc(F)cc2)cc1)CCOC` (centres unmarked) [Compound 990] had a half-maximal effective concentration (EC50) in assay [1] (setting [8]) of less than 8 nM.

`O=C(Oc1ccc(F)cc1)N1CCc2c([nH]c3ccc(Cl)cc23)C1c1ccc(OCCCN2CCSCC2)cc1` (centres unmarked) [Compound 991]: in assay [1] (setting [8]), the concentration giving a half-maximal response (EC50) lay in the range of 40 to 200 nM.

Compound `COCCN(C)CCCOc1ccc(C2c3[nH]c4ccc(Cl)cc4c3CCN2C(=O)Oc2ccc(F)cc2)cc1` (centres unmarked) [Compound 992] yielded a 50% effective concentration (EC50) in [1] (setting [8]) of 40 to 200 nM.

On to `CN1CCN(CCCOc2ccc(C3c4[nH]c5ccc(Cl)cc5c4CCN3C(=O)Oc3ccc(F)cc3)cc2)CC1` (centres unmarked) [Compound 993], for which the concentration giving a half-maximal response (EC50) in [1] (setting [8]) is less than 8 nM.

Regarding `O=C(Oc1ccc(F)cc1)N1CCc2c([nH]c3ccc(Cl)cc23)C1c1ccc(OCCCn2ccnc2)cc1` (centres unmarked) [Compound 994], in assay [1] (HeLa cells, hypoxic conditions (1% O2, 5% CO2)), the concentration giving a half-maximal response (EC50) is less than 8 nM.

`O=C(Oc1ccc(F)cc1)N1CCc2c([nH]c3ccc(Cl)cc23)C1c1ccc(OCCCn2ccnn2)cc1` (centres unmarked) [Compound 995] returned a concentration for a half-maximal effect (EC50) in [1] (setting [8]) of less than 8 nM.

With `O=C(Oc1ccc(Cl)cc1)N1CCc2c([nH]c3ccc(Cl)cc23)C1c1ccc(OCC(O)Cn2cncn2)cc1` (centres unmarked) [Compound 996], the 50% effective concentration (EC50) in [1] (setting [8]) was less than 8 nM.
